The values below come from patent publication US12310963B2, “Pyrazole derivatives and use thereof” (Tarapeutics Science Inc., priority 2019, dated 2025).

SMILES strings stand for the structures.

Assay [1] concerns BaF3-tel-PDGFRβ (stably expressing PDGFRβ kinase). Description: Growth of BaF3-tel-PDGFRβ cells, Cell Titer-Glo, 72 h. The class given is cell-based, mouse. An excerpt: (§1) In this example, mouse primary B cell BaF3 (purchased from ATCC, U.S.A.) was used. In addition, in this example, mouse BaF3-tel-PDGFRα (stably expressing PDGFRα kinase), mouse BaF3-tel-PDGFRβ (stably expressing PDGFRβ kinase), BaF3-P210 (stably expressing ABL kinase), BaF3-P210-T315I (stably expressing ABL-T315I kinase), BaF3-FL-BRAF-V600E (stably expressing BRAF-V600E kinase), BaF3-TEL-cKIT (stably expressing cKIT kinase), BaF3-TEL-VEGFR2 (stably expressing VEGFR2 kinase), BaF3-TEL-FGFR2 (stably expressing FGFR2 kinase) were also used. The above-mentioned cell trains were all constructed in our laboratory by the method as follows. The sequences of human BCR-ABL (P210 or P210/T315I mutated), full-length BRAF-V600E, cKIT, VEGFR2, FGFR2, PDGFRα, PDGFRβ kinase region were amplified respectively via PCR, and inserted respectively into a MSCV-Puro vector (purchased from Clontech) having a N-terminal TEL fragment and/or NPM fragment and/or TPR fragment, and stably transferred into mouse BaF3 cells by the retroviral method, and the growth factor IL-3 was removed. Eventually, cell lines which are transferred into proteins depending on PDGFRα, PDGFRβ were obtained.
(§2) In this example, solutions of the test compound at different concentrations (0.000508 μM, 0.00152 μM, 0.00457 μM, 0.0137 μM, 0.0411 μM, 0.123 μM, 0.370 μM, 1.11 μM, 3.33 μM, 10 μM) were added to the above cells. The cells were incubated for 72 hours.

Assay [2] relates to BaF3. Briefly: Growth of parental BaF3 cells, Cell Titer-Glo, 72 h. The class given is cell-based. The note with it: Mus musculus.
Text: as §1, §2

Assay [3] relates to BaF3-tel-PDGFRα (stably expressing PDGFRα kinase). Briefly: Growth of BaF3-tel-PDGFRα cells, Cell Titer-Glo, 72 h. The class given is cell-based, mouse.
Text: as §1, §2

As to `Cc1ccc(NC(=O)c2ccnc(C(F)(F)F)c2)cc1-n1cc(-c2cncc(N3CCN(C)CC3)c2)cn1` [Compound 2, N-(4-methyl-3-(4-(5-(4-methylpiperazin-1-yl)pyridin-3-yl)-1H-pyrazol-1-yl)phenyl)-2-(trifluoromethyl)isonicotinamide], the 50% growth inhibitory concentration (GI50) amounted to 40 nM in assay [1], 9290 nM in assay [2] and 2.8 nM in assay [3].
Take `Cc1ccc(NC(=O)c2ccnc(C(F)(F)F)c2)cc1-n1cc(-c2cnccc2OCC2CCOCC2)cn1` [Compound 3, N-(4-methyl-3-(4-(4-((tetrahydropyran-4-yl)methoxy)pyridin-3-yl)-1H-pyrazol-1-yl)phenyl)-2-(trifluoromethyl)isonicotinamide]: the values for the GI50 in assay [1], in assay [2] and in assay [3] were 1.4 nM, 6500 nM and 1.4 nM, respectively.
`Cc1ccc(NC(=O)c2cccc(C(F)(F)F)n2)cc1-n1cc(-c2cnccc2OCCN2CCOCC2)cn1` [Compound 4, N-(4-methyl-3-(4-(4-(2-morpholinoethoxy)pyridin-3-yl)-1H-pyrazol-1-yl)phenyl)-6-(trifluoromethyl)picolinamide]: the results for the GI50 in assay [1], in assay [2] and in assay [3] were 3.2 nM, approximately 10000 nM and less than 0.3 nM, respectively.
For the compound `Cc1ccc(NC(=O)c2ccnc(C(F)(F)F)c2)cc1-n1cc(-c2cnccc2OCCN2CCOCC2)cn1` [Compound 5, N-(4-methyl-3-(4-(4-(2-morpholinoethoxy)pyridin-3-yl)-1H-pyrazol-1-yl)phenyl)-2-(trifluoromethyl)isonicotinamide], the figures for the concentration for 50% growth inhibition (GI50) in assay [1], in assay [2] and in assay [3] were less than 0.3 nM, approximately 10000 nM and less than 0.3 nM, respectively.
On to `Cc1ccc(NC(=O)c2cccc(C(F)(F)F)n2)cc1-n1cc(-c2cnccc2OC2COC2)cn1` [Compound 6, N-(4-methyl-3-(4-(4-(oxetan-3-yloxy)pyridin-3-yl)-1H-pyrazol-1-yl)phenyl)-6-(trifluoromethyl)picolinamide], for which the concentration for 50% growth inhibition (GI50) in assay [1] was 1 nM; in assay [2] it was more than 10000 nM; in assay [3] it was less than 0.3 nM.
Consider `Cc1ccc(NC(=O)c2ccnc(C(F)(F)F)c2)cc1-n1cc(-c2cncc(OC3COC3)c2)cn1` [Compound 7, N-(4-methyl-3-(4-(5-(oxetan-3-yloxy)pyridin-3-yl)-1H-pyrazol-1-yl)phenyl)-2-(trifluoromethyl)isonicotinamide], for which the GI50 in assay [1] is 1 nM; in assay [2], more than 10000 nM; in assay [3], less than 0.3 nM.
As to `Cc1ccc(NC(=O)c2cccc(C(F)(F)F)n2)cc1-n1cc(-c2cnccc2OCC2CCCO2)cn1` (stereo not shown) [Compound 8, N-(4-methyl-3-(4-(4-((tetrahydrofuran-2-yl)methoxy)pyridin-3-yl)-1H-pyrazol-1-yl)phenyl)-6-(trifluoromethyl)picolinamide], the 50% growth inhibitory concentration (GI50) is 1.3 nM in assay [1] and more than 10000 nM in assay [2].
Taken in the same sequence, the figures for `Cc1ccc(NC(=O)c2ccnc(C(F)(F)F)c2)cc1-n1cc(-c2cnccc2OCC2CCCO2)cn1` (stereo not shown) [Compound 9, N-(4-methyl-3-(4-(4-((tetrahydrofuran-2-yl)methoxy)pyridin-3-yl)-1H-pyrazol-1-yl)phenyl)-2-(trifluoromethyl)isonicotinamide] were less than 0.3 nM and more than 10000 nM.
For `Cc1ccc(NC(=O)c2cccc(C(F)(F)F)n2)cc1-n1cc(-c2cnccc2OCC2CCCC2)cn1` [Compound 10, N-(3-(4-(4-(cyclopentylmethoxy)pyridin-3-yl)-1H-pyrazol-1-yl)-4-methylphenyl)-6-(trifluoromethyl)picolinamide], the results for the GI50 in assay [1] and in assay [2] were 62 nM and more than 10000 nM, respectively.
As for `Cc1ccc(NC(=O)c2ccnc(C(F)(F)F)c2)cc1-n1cc(-c2cnccc2OCC2CCCC2)cn1` [Compound 11, N-(3-(4-(4-(cyclopentylmethoxy)pyridin-3-yl)-1H-pyrazol-1-yl)-4-methylphenyl)-2-(trifluoromethyl)isonicotinamide], the concentration for 50% growth inhibition (GI50) in assay [1] is 1.1 nM; in assay [2], more than 10000 nM.
Taken in the same sequence, the figures for `Cc1ccc(NC(=O)c2ccnc(C(F)(F)F)c2)cc1-n1cc(-c2cncc(N3CCOCC3)c2)cn1` [Compound 12, N-(4-methyl-3-(4-(5-morpholinopyridin-3-yl)-1H-pyrazol-1-yl)phenyl)-2 (trifluoromethyl)isonicotinamide] were 1 nM and approximately 10000 nM.
For the compound `Cc1ccc(NC(=O)c2cccc(C(F)(F)F)n2)cc1-n1cc(-c2cnccc2OCC2CCOCC2)cn1` [Compound 13, N-(4-methyl-3-(4-(4-((tetrahydropyran-4-yl)methoxy)pyridin-3-yl)-1H-pyrazol-1-yl)phenyl)-6-(trifluoromethyl)picolinamide], the 50% growth inhibitory concentration (GI50) in assay [1] was 5.5 nM; in assay [2], more than 10000 nM; in assay [3], 1.6 nM.
The corresponding values for `Cc1ccc(NC(=O)c2cccc(F)n2)cc1-n1cc(-c2cncc(N3CCN(C)CC3)c2)cn1` [Compound 14, 6-fluoro-N-(4-methyl-3-(4-(5-(4-methylpiperazin-1-yl)pyridin-3-yl)-1H-pyrazol-1-yl)phenyl)picolinamide] are less than 1.5 nM, 8400 nM and less than 1.5 nM.
As for `Cc1ccc(NC(=O)c2cc(C(F)(F)F)ccn2)cc1-n1cc(-c2cncc(N3CCN(C)CC3)c2)cn1` [Compound 15, N-(4-methyl-3-(4-(5-(4-methylpiperazin-1-yl)pyridin-3-yl)-1H-pyrazol-1-yl)phenyl)-4-(trifluoromethyl)picolinamide], the figures for the GI50 in assay [1], in assay [2] and in assay [3] were less than 1.5 nM, 3900 nM and less than 1.5 nM, respectively.
`Cc1ccc(NC(=O)c2cncc(C(F)(F)F)c2)cc1-n1cc(-c2cncc(N3CCN(C)CC3)c2)cn1` [Compound 16, N-(4-methyl-3-(4-(5-(4-methylpiperazin-1-yl)pyridin-3-yl)-1H-pyrazol-1-yl)phenyl)-5-(trifluoromethyl)nicotinamide]: the GI50 was less than 1.5 nM in assay [1], more than 10000 nM in assay [2] and less than 1.5 nM in assay [3].
As for `Cc1ccc(NC(=O)c2cccc(Cl)n2)cc1-n1cc(-c2cncc(N3CCN(C)CC3)c2)cn1` [Compound 17, 6-chloro-N-(4-methyl-3-(4-(5-(4-methylpiperazin-1-yl)pyridin-3-yl)-1H-pyrazol-1-yl)phenyl)picolinamide], the GI50 in assay [1] is less than 1.5 nM; in assay [2], 2800 nM; in assay [3], less than 1.5 nM.
For the compound `Cc1ccc(NC(=O)c2ccnc(C(F)(F)F)c2)cc1-n1cc(-c2cncc(N3CCN(C)CC3)c2)nn1` [Compound 19, N-(4-methyl-3-(4-(5-(4-methylpiperazin-1-yl)pyridin-3-yl)-1H-1,2,3-triazol-1-yl)phenyl)-2-(trifluoromethyl)isonicotinamide], the concentration for 50% growth inhibition (GI50) in assay [1] was less than 10 nM; in assay [2], more than 10000 nM; in assay [3], less than 10 nM.
Regarding `Cc1ccc(NC(=O)c2cncc(C(F)(F)F)c2)cc1-n1cc(-c2cncc(N3CCN(C)CC3)c2)nn1` [Compound 20, N-(4-methyl-3-(4-(5-(4-methylpiperazin-1-yl)pyridin-3-yl)-1H-1,2,3-triazol-1-yl)phenyl)-5-(trifluoromethyl)nicotinamide], the GI50 in assay [1] is less than 10 nM; in assay [2] it was 5070 nM; in assay [3] it was less than 10 nM.
`Cc1ccc(NC(=O)c2cc(C(F)(F)F)ccn2)cc1-n1cc(-c2cncc(N3CCN(C)CC3)c2)nn1` [Compound 21, N-(4-methyl-3-(4-(5-(4-methylpiperazin-1-yl)pyridin-3-yl)-1H-1,2,3-triazol-1-yl)phenyl)-4-(trifluoromethyl)picolinamide]: the values for the GI50 in assay [1], in assay [2] and in assay [3] were less than 10 nM, 2840 nM and less than 10 nM, respectively.
Regarding `Cc1ccc(NC(=O)c2cccc(Cl)n2)cc1-n1cc(-c2cncc(N3CCN(C)CC3)c2)nn1` [Compound 22, 6-chloro-N-(4-methyl-3-(4-(5-(4-methylpiperazin-1-yl)pyridin-3-yl)-1H-1,2,3-triazol-1-yl)phenyl)picolinamide], the GI50 in assay [1] is less than 10 nM; in assay [2], 960 nM; in assay [3], less than 10 nM.
Take `CN1CCN(c2cncc(-c3cn(-c4cc(NC(=O)c5cccc(C(F)(F)F)n5)ccc4F)nn3)c2)CC1` [Compound 24, N-(4-fluoro-3-(4-(5-(4-methylpiperazin-1-yl)pyridin-3-yl)-1H-1,2,3-triazol-1-yl)phenyl)-6-(trifluoromethyl)picolinamide]: the results for the 50% growth inhibitory concentration (GI50) in assay [1], in assay [2] and in assay [3] were less than 10 nM, 4760 nM and less than 10 nM, respectively.
As for `CN1CCN(c2cncc(-c3cn(-c4cc(NC(=O)c5ccnc(C(F)(F)F)c5)ccc4F)nn3)c2)CC1` [Compound 25, N-(4-fluoro-3-(4-(5-(4-methylpiperazin-1-yl)pyridin-3-yl)-1H-1,2,3-triazol-1-yl)phenyl)-2-(trifluoromethyl) isonicotinamide], the 50% growth inhibitory concentration (GI50) was less than 10 nM in assay [1], 5550 nM in assay [2] and less than 10 nM in assay [3].
